Reference: patent US20220251085A1, “CYSTEINE BINDING COMPOSITIONS AND METHODS OF USE THEREOF” (University of Virginia Patent Foundation, priority 2019, published 2022)
One block for each molecule: values may come before it.

Assays:
[1] = HPLC assay for profiling solution reactivity and stability of purine fragments (probes) with amino acid mimetics; format: physicochemical; conditions: for effect of amine group at the 2 position on electrophilic character / reaction kinetics compared to N9 counterparts / adducts formed, based on HPLC traces: butanethiol; for effect of position of the halogen leaving group on reactivity: 6 position versus 2 position (Pu-3 versus Pu-5, Pu-4 versus Pu-6); for reaction kinetics compared to N9 counterparts: versus Pu-2, Pu-4, Pu-10; for reaction with butanethiol: cysteine mimetic, on ice 6 h
Description: HPLC assay for profiling solution reactivity and stability of purine fragments: The following reagents were prepared and stored on ice prior to use. 0.1 molar (M) solution of caffeine in acetonitrile, 1.0 M solution of amino acid mimetic (butanethiol—cysteine mimetic; n-butylamine—lysine mimetic; p-cresol—tyrosine mimetic; propionamide-asparagine/glutamine mimetic; butyric acid—aspartic/glutamic acid mimetic), tetramethylguanidine (TMG), 1 M acetic acid (HOAc) in acetonitrile (ACN) and 10 mM solution of purine fragment in ACN mixture. 500 μL of fragment solution were transferred to a dram vial on ice. To the mixture, 5.5 μL of TMG and 5.5 μL of respective amino acid mimetic were added and solutions were stirred on ice for 6 h. To monitor reactivity, 50 μL aliquots were removed at indicated time points and quenched with 10 μL of a 1:1 mixture of caffeine and HOAc. Samples were injected (1 μL) and analyzed by reverse-phase HPLC on a Shimadzu 1100 Series spectrometer (Shimadzu Corporation, Kyoto, Japan) with UV detection at 254 nm. Reaction progress was evaluated by monitoring consumption of starting material (purine fragment) normalized to caffeine standard. Chromatographic separation was performed using a Phenomenex Kinetex C18 column (2.6 μm, 50×4.6 mm; Phenomenex, Torrance, Calif., United States of America). Mobile phases A and B were composed of H2O+0.1% HOAc and ACN+0.1% HOAc, respectively. […] All purine fragment peak AUCs used for calculations were normalized to caffeine standard AUCs at respective time points to account for run-to-run variations by HPLC. The amount of purine fragment consumed (% starting material) was plotted as a function of time.
Discussion: An HPLC assay for determining the reactivity of the purine-based probes with mimetics of amino acid residues was performed. […] Reaction progress was monitored by monitoring the disappearance of starting material and appearance of product via HPLC.

DM93 cells = experiment: Live cell activity of purine probes, gel-based (CuAAC rhodamine-azide, in-gel fluorescence); conditions: for reactivity of N7 versus N9 tautomers / probe labeling compared to Pu-5 and Pu-6: live DM93 cells; for probe labeling compared to Pu-5 and Pu-6: 6-chloro versus 2-chloro; for labeling profile in live cells: DM93 cells, 25 μM, 4 hours
Description: Live Cell Activity Method: DM93 cells were grown at 37° C. in 5% CO2 until 90% confluent. Once confluent cells were washed with serum free media and treated with halogenated purine probes at a final concentration of 25 μM (unless stated) for 4 hours (unless stated). Cells were then scraped and washed 3× with cold PBS and lysed in PBS+protease inhibitor. Lysates were spun at 100,000×g for 45 minutes. Halogen probe-modified proteins in soluble fractions were visualized by conjugating rhodamine-azide using copper-catalyzed azide-alkyne cycloaddition (CuAAC; 1 hour, room temperature), subjected to SDS-PAGE, and detected by in-gel fluorescence scanning. SDS-PAGE gels were also stained with Coomassie brilliant blue to determine protein load. All samples were loaded with equivalent amounts of protein. Thus, changes in purine probe labeling is not due to loading of different proteome amounts.

[2] = test system: DM93 cells lysates (soluble fractions); experiment: Lysate activity of purine probes, gel-based (in-gel fluorescence); format: biochemical; conditions: for reactivity of N7 versus N9 tautomers / labeling compared to AHL-Pu-5 and AHL-Pu-6: lysates; for labeling compared to AHL-Pu-5 and AHL-Pu-6: 6-chloro versus 2-chloro; for protein labeling activity in lysates: DM93 soluble fractions, 25 μM, 2 hrs, 37° C.
Description: Lysate Activity Method: DM93 cells were grown at 37° C. in 5% CO2 until 90% confluent. Once confluent, cells were scraped and washed 3× times with cold PBS and lysed in PBS+protease inhibitor. Lysates were spun at 100,000×g for 45 minutes. Soluble fractions were treated with 25 μM of halogenated purine probes (unless stated) for 2 hrs (unless stated) at 37° C. Purine probe modified proteins were conjugated to rhodamine-azide by CuAAC, subjected to SDS-PAGE analysis, and detected by in-gel fluorescence scanning. SDS-PAGE gels were stained with Coomassie brilliant blue to determine protein load.

[3] = HPLC assay for profiling solution reactivity and stability of purine adduct fragments; format: physicochemical; conditions: for preference between nucleophiles: butanethiol versus p-cresol
Description: HPLC assay for profiling solution reactivity and stability of purine adduct fragments: The following reagents were prepared and stored on ice prior to use. 0.1 M solution of caffeine in acetonitrile, 1.0 M solution of amino acid mimetic (butanethiol, n-butylamine, p-cresol, propionamide and butyric acid), tetramethylguanidine (TMG), 1 M HOAc in ACN and 10 mM solution of purine fragment (e.g., one of the purine adducts shown in Scheme 8, above) in ACN mixture. 500 μL of fragment solution (i.e. purified Pa-1 through Pa-6) were transferred to a dram vial on ice. To the mixture, 5.5 μL of TMG and 5.5 μL of respective amino acid mimetic were added and solutions were stirred on ice for 6 h. To monitor reactivity, 50 μL aliquots were removed at indicated time points and quenched with 10 μL of a 1:1 mixture of caffeine and HOAc. Samples were injected (1 μL) and analyzed by reverse-phase HPLC on a Shimadzu 1100 Series spectrometer with UV detection at 254 nm. Reaction progress was evaluated by monitoring consumption of starting material (purine fragment) normalized to caffeine standard. Chromatographic separation was performed using a Phenomenex Kinetex C18 column (2.6 μm, 50×4.6 mm). Mobile phases A and B were composed of H2O+0.1% HOAc and ACN+0.1% HOAc, respectively. […] All purine fragment peak AUCs used for calculations were normalized to caffeine standard AUCs at respective time points to account for run-to-run variations by HPLC. The amount of purine fragment consumed (% starting material) was plotted as a function of time.

[4] = molecular target: T1, human eEF-Sec (Uniprot ID P57772) (Homo sapiens, UniProt P57772); experiment: Competition assay: purine ligands block AHL-Pu-1 probe labeling of eEF-Sec; format: cell-based; conditions: for block of AHL-Pu-1 probe labeling of eEF-Sec: ligand 10 μM, AHL-Pu-1 25 μM; for block of AHL-Pu-1 probe labeling of eEF-Sec / block of AHL-Pu-1 probe labeling of eEF-Sec (FIG. 10D) / block of AHL-Pu-1 probe labeling of eEF-Sec (FIG. 10E): live cells; for block of AHL-Pu-1 probe labeling of eEF-Sec (FIG. 10D) / block of AHL-Pu-1 probe labeling of eEF-Sec (FIG. 10E): ligand 4 hr, AHL-Pu-1 25 μM 1 hr; for block of AHL-Pu-1 probe labeling of eEF-Sec (FIG. 10D): 0.5 to 25 μM; for inhibition of eEF-Sec probe labeling: 10 μM ligand; for block of AHL-Pu-1 probe labeling of eEF-Sec (FIG. 10E): 0.05 to 25 μM
T1 construct: FLAG; expressed in transfected cells; host or cells: HEK293T
T1 sequence (P57772 1-596): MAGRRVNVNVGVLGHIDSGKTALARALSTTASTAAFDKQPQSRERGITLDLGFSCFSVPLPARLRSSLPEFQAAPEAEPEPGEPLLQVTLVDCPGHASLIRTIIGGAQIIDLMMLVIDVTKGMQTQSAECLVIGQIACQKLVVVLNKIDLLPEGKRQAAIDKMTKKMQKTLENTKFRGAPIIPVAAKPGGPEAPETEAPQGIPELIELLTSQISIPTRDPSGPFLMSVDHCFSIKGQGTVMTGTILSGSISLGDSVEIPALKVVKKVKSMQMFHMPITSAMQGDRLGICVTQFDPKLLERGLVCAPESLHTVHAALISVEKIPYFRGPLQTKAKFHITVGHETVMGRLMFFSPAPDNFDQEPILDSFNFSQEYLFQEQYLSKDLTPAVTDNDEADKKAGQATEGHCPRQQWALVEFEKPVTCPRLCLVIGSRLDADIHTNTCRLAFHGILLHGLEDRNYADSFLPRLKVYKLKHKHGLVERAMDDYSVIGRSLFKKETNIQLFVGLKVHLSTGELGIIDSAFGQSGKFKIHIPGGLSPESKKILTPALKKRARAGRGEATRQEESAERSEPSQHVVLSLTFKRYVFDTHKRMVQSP
Description: FIG. 8 is a schematic diagram showing the workflow of a fluorescent gel-based competition assay using an activity-based probe (ABP) of the presently disclosed subject matter and a competitive inhibitor.
Methods: HEK293T cells were grown at 37° C. in 5% CO2 until 40% confluent. Recombinant human eEF-Sec (Uniprot ID P57772) was expressed by transient transfection for 48 hours. […] Lysates were spun at 100,000×g for 45 minutes. […] Purine probe modified proteins were conjugated to rhodamine-azide by CuAAC, subjected to SDS-PAGE analysis, and detected by in-gel fluorescence scanning. Comparison of non-transfected (Mock) and transfected proteomes was used to identify the recombinant eEF-Sec purine probe-labeled band. […] Reduction in fluorescent signals from purine probe labeling was indicative of Pi ligand inhibitory activity. Mut represents eEF-Sec mutant where cysteine residue 442 is mutated to alanine (C442A).

SMILES: C#CCn1cnc2c(Cl)nc(N)nc21 [Pu-8, 2-Amino-6-chloro-9-(prop-2-yn-1-yl)-9H-purine]
- effect of amine group at the 2 position on electrophilic character [1]: dramatically reduces the electrophilic character

SMILES: C#CCn1cnc2nc(N)nc(Cl)c21 [Pu-7, 6-chloro-2-amino-7-(prop-2-yn-1-yl)-7H-purine]
- effect of amine group at the 2 position on electrophilic character [1]: dramatically reduces the electrophilic character

SMILES: C#CCn1cnc2nc(Cl)nc(SCCCC)c21 [Pa-1, 6-(Butylthio)-2-chloro-7-(prop-2-yn-1-yl)-7H-purine]
- reactivity with butanethiol or p-cresol ([3]; on ice 6 h): little reactivity

SMILES: C#CCn1cnc2c(Cl)ncnc21 [Pu-4, 6-Chloro-9-(prop-2-yn-1-yl)-9H-purine]
- effect of position of the halogen leaving group on reactivity [1]: the 6 position enhances reactivity
- probe labeling compared to Pu-5 and Pu-6 (DM93 cells): Enhanced probe labeling
- labeling compared to AHL-Pu-5 and AHL-Pu-6 [2]: Increased labeling

SMILES: Clc1nc(Cl)c2c(ncn2Cc2ccccc2)n1 [Pi-1, 2,6-dichloro-7-benzyl-7H-purine]
- block of AHL-Pu-1 probe labeling of eEF-Sec (FIG. 10E) [4]: in a concentration dependent manner
- block of AHL-Pu-1 probe labeling of eEF-Sec (FIG. 10D) [4]: in a concentration dependent manner

SMILES: C#CCn1cnc2c(Cl)nc(F)nc21 [Pu-10, 6-chloro-2-fluoro-9-(prop-2-yn-1-yl)-9H-purine]
- adducts formed, based on HPLC traces [1]: likely form many different adducts
- reaction with butanethiol [1]: react with butanethiol
- labeling profile in live cells (DM93 cells): robust labeling profiles
- protein labeling activity in lysates [2]: highest protein labeling activity

SMILES: O=[N+]([O-])c1ccc(Cn2cnc3nc(Cl)nc(Cl)c32)cc1 [Pi-5, 2,6-Dichloro-7-(4-nitrobenzyl)-7H-purine]
- inhibition of eEF-Sec probe labeling [4]: greater than 50%
- block of AHL-Pu-1 probe labeling of eEF-Sec [4]: block AHL-Pu-1 probe labeling (25 μM) in a time dependent and concentration dependent manner
- block of AHL-Pu-1 probe labeling of eEF-Sec (FIG. 10E) [4]: in a concentration dependent manner
- block of AHL-Pu-1 probe labeling of eEF-Sec (FIG. 10D) [4]: in a concentration dependent manner

Further lines, with some results ahead:

- effect of position of the halogen leaving group on reactivity [1]: the 6 position enhances reactivity
- reaction with butanethiol [1]: react with butanethiol
SMILES: C#CCn1cnc2ncnc(Cl)c21 [Pu-3, 6-Chloro-7-(prop-2-yn-1-yl)-7H-purine]
- reaction kinetics compared to N9 counterparts [1]: accelerated reaction kinetics
- reactivity of N7 versus N9 tautomers (DM93 cells): more reactive
- probe labeling compared to Pu-5 and Pu-6 (DM93 cells): Enhanced probe labeling
- reactivity of N7 versus N9 tautomers [2]: more reactive
- labeling compared to AHL-Pu-5 and AHL-Pu-6 [2]: Increased labeling

- preference between nucleophiles [3]: preference for butanethiol
- reactivity with nucleophiles ([3]; on ice 6 h): mild reactivity
SMILES: C#CCn1cnc2c(Cl)nc(SCCCC)nc21 [Pa-3, 2-(butylthio)-6-chloro-9-(prop-2-yn-1-yl)-9H-purine]

- block of AHL-Pu-1 probe labeling of eEF-Sec (FIG. 10D) [4]: in a concentration dependent manner
SMILES: O=S(=O)(N1CCOCC1)n1cnc2c(Cl)nc(Cl)nc21 [Pi-8, 4-((2,6-Dichloro-9H-purin-9-yl)sulfonyl)morpholine]
- block of AHL-Pu-1 probe labeling of eEF-Sec [4]: block AHL-Pu-1 probe labeling (25 μM) in a time dependent and concentration dependent manner

- inhibition of eEF-Sec probe labeling [4]: loses all apparent activity
SMILES: O=[N+]([O-])c1ccc(Cn2cnc3c(Cl)nc(Cl)nc32)cc1 [Pi-6, 2,6-Dichloro-9-(4-nitrobenzyl)-9H-purine]

- reactivity of 2-halogen, 6-substituted versus 6-halogen, 2-substituted ([3]; Pa-4 versus Pa-3, butanethiol): higher reactivity
- reactivity with nucleophiles ([3]; on ice 6 h): mild reactivity
SMILES: C#CCn1cnc2c(SCCCC)nc(Cl)nc21 [Pa-4, 6-(butylthio)-2-chloro-9-(prop-2-yn-1-yl)-9H-purine]
- reactivity against nucleophiles, N9 versus N7 tautomer ([3]; Pa-4 versus Pa-1, butanethiol): appears to be more reactive against nucleophiles

- adducts formed, based on HPLC traces [1]: likely form many different adducts
- reaction with butanethiol [1]: react with butanethiol
SMILES: C#CCn1cnc2nc(F)nc(Cl)c21 [Pu-9, 6-chloro-2-fluoro-7-(prop-2-yn-1-yl)-7H-purine]
- reaction kinetics compared to N9 counterparts [1]: accelerated reaction kinetics
- labeling profile in live cells (DM93 cells): robust labeling profiles
- reactivity of N7 versus N9 tautomers (DM93 cells): more reactive
- protein labeling activity in lysates [2]: highest protein labeling activity
- reactivity of N7 versus N9 tautomers [2]: more reactive

- reactivity with nucleophiles ([3]; on ice 6 h): mild reactivity
SMILES: C#CCn1cnc2c(SCCCC)nc(F)nc21 [Pa-6, 6-(butylthio)-2-fluoro-9-(prop-2-yn-1-yl)-9H-purine]
- preference between nucleophiles [3]: equivalent reactivity against butanethiol and p-cresol
